Legend:
Format in all cases: biochemical
EPHB3 = biological target: T1, EPHB3 (Homo sapiens, UniProt P54753); test: mobility shift assay
T1 construct: purchased Carna Biosciences

IKKβ = biological target: T2, IKKβ (Homo sapiens, UniProt O14920); test: mobility shift assay
T2 construct: purchased Carna Biosciences

MARK2 = biological target: T3, MARK2 (Homo sapiens, UniProt Q7KZI7); test: mobility shift assay
T3 construct: purchased Carna Biosciences

FYN(isoform a) = biological target: T4, FYN(isoform a) (Homo sapiens, UniProt P06241); test: mobility shift assay
T4 construct: purchased Carna Biosciences

BRSK2 = biological target: T5, BRSK2 (Homo sapiens, UniProt Q8IWQ3); test: mobility shift assay
T5 construct: purchased Carna Biosciences

NEK9 = biological target: T6, NEK9 (Homo sapiens, UniProt Q8TD19); test: mobility shift assay
T6 construct: purchased Carna Biosciences

NEK4 = biological target: T7, NEK4 (Homo sapiens, UniProt P51957); test: mobility shift assay
T7 construct: purchased Carna Biosciences

MAPKAPK3 = biological target: T8, MAPKAPK3 (Homo sapiens, UniProt Q16644); test: mobility shift assay
T8 construct: purchased Carna Biosciences

PHKG2 = biological target: T9, PHKG2 (Homo sapiens, UniProt P15735); test: mobility shift assay
T9 construct: purchased Carna Biosciences

AMPKα1/β1/γ1 = biological target: T10, AMPKα1/β1/γ1 (Homo sapiens, UniProt Q13131); test: mobility shift assay
T10 construct: purchased Carna Biosciences

PKR = biological target: T11, PKR (Homo sapiens, UniProt P19525); test: IMAP Assay
T11 construct: purchased Carna Biosciences

EEF2K = biological target: T12, EEF2K (Homo sapiens, UniProt O00418); test: mobility shift assay
T12 construct: purchased Carna Biosciences

WNK2 = biological target: T13, WNK2 (Homo sapiens, UniProt Q9Y3S1); test: mobility shift assay
T13 construct: purchased Carna Biosciences

FGFR4 = biological target: T14, FGFR4 (Homo sapiens, UniProt P22455); test: mobility shift assay
T14 construct: purchased Carna Biosciences

JNK2 = biological target: T15, JNK2 (Homo sapiens, UniProt P45984); test: mobility shift assay
T15 construct: purchased Carna Biosciences

CaMK4 = biological target: T16, CaMK4 (Homo sapiens, UniProt Q16566); test: mobility shift assay
T16 construct: purchased Carna Biosciences

PKCδ = biological target: T17, PKCδ (Homo sapiens, UniProt Q05655); test: mobility shift assay
T17 construct: purchased Carna Biosciences

YES = biological target: T18, YES (Homo sapiens, UniProt P07947); test: mobility shift assay
T18 construct: purchased Carna Biosciences

HPK4 = biological target: T19, HPK4 (Homo sapiens, UniProt Q8NE63); test: mobility shift assay
T19 construct: purchased Carna Biosciences

RSK4 = biological target: T20, RSK4 (Homo sapiens, UniProt Q9UK32); test: mobility shift assay
T20 construct: purchased Carna Biosciences

DYRK1A = biological target: T21, DYRK1A (Homo sapiens, UniProt Q13627); test: mobility shift assay
T21 construct: purchased Carna Biosciences

PAK4 = biological target: T22, PAK4 (Homo sapiens, UniProt O96013); test: mobility shift assay
T22 construct: purchased Carna Biosciences

EGFR(T790M) = biological target: T23, EGFR(T790M) (Homo sapiens, UniProt P00533, T790M); test: mobility shift assay
T23 construct: purchased Carna Biosciences

PKACα = biological target: T24, PKACα (Homo sapiens, UniProt P17612); test: mobility shift assay
T24 construct: purchased Carna Biosciences

RET(G691S) = biological target: T25, RET(G691S) (Homo sapiens, UniProt P07949, G691S); test: mobility shift assay
T25 construct: purchased Carna Biosciences

PIM2 = PIM2 (Homo sapiens, UniProt Q9P1W9); test: IC50 by mobility shift assay; settings: Table 2, mobility shift assay; read-out: IC50 (μM), Kinase PIM2
Description: (§1) The compounds produced in Production Examples described above were each assessed for its inhibitory activity against CDK7, PIM2, and PI3K by mobility shift assay. In addition, a combination showing the highest inhibitory activity against each kinase is indicated by italics.

CDK7/CycHMAT1 = CDK7/CycHMAT1 (Homo sapiens, UniProt P50613); test: IC50 by mobility shift assay; settings: Table 2, mobility shift assay; read-out: IC50 (μM), Kinase CDK7/CycH/MAT1
Description: as §1

TSSK2 = biological target: T26, TSSK2 (Homo sapiens, UniProt Q96PF2); test: mobility shift assay
T26 construct: purchased Carna Biosciences

SRM = biological target: T27, SRM (Homo sapiens, UniProt Q9H3Y6); test: mobility shift assay
T27 construct: purchased Carna Biosciences

MNK2 = biological target: T28, MNK2 (Homo sapiens, UniProt Q9HBH9); test: mobility shift assay
T28 construct: purchased Carna Biosciences

JNK1 = biological target: T29, JNK1 (Homo sapiens, UniProt P45983); test: mobility shift assay
T29 construct: purchased Carna Biosciences

CaMK2α = biological target: T30, CaMK2α (Homo sapiens, UniProt Q9UQM7); test: mobility shift assay
T30 construct: purchased Carna Biosciences

PKACβ = biological target: T31, PKACβ (Homo sapiens, UniProt P22694); test: mobility shift assay
T31 construct: purchased Carna Biosciences

FGFR4(V550E) = biological target: T32, FGFR4(V550E) (Homo sapiens, UniProt P22455, V550E); test: mobility shift assay
T32 construct: purchased Carna Biosciences

AKT3 = biological target: T33, AKT3 (Homo sapiens, UniProt Q9Y243); test: mobility shift assay
T33 construct: purchased Carna Biosciences

BRK = biological target: T34, BRK (Homo sapiens, UniProt Q13882); test: mobility shift assay
T34 construct: purchased Carna Biosciences

MRCKα = biological target: T35, MRCKα (Homo sapiens, UniProt Q5VT25); test: mobility shift assay
T35 construct: purchased Carna Biosciences

FGFR3(K650M) = biological target: T36, FGFR3(K650M) (Homo sapiens, UniProt P22607, K650M); test: mobility shift assay
T36 construct: purchased Carna Biosciences

SGK2 = biological target: T37, SGK2 (Homo sapiens, UniProt Q9HBY8); test: mobility shift assay
T37 construct: purchased Carna Biosciences

KIT(V654A) = biological target: T38, KIT(V654A) (Homo sapiens, UniProt P10721, V654A); test: mobility shift assay
T38 construct: purchased Carna Biosciences

T5 sequence (Q8IWQ3 whole entry): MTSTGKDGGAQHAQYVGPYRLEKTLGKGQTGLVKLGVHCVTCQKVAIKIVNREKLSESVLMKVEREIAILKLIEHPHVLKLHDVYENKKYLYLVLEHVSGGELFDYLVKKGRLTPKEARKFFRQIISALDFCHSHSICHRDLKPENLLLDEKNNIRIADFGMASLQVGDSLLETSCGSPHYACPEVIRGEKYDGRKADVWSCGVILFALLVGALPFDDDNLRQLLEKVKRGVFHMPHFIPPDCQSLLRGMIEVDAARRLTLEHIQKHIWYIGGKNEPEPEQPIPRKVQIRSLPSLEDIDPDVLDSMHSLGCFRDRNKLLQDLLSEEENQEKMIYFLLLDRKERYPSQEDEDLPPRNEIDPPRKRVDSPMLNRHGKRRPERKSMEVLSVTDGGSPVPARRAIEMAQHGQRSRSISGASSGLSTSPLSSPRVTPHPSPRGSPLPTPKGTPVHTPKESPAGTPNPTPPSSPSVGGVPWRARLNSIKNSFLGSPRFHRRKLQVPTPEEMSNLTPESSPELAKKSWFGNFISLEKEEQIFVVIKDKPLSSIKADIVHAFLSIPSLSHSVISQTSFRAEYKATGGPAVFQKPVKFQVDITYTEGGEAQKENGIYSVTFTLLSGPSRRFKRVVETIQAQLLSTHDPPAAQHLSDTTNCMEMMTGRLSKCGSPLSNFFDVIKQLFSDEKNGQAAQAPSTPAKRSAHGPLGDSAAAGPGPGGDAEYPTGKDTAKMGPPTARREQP
T25 sequence (P07949 29-1114 G691S): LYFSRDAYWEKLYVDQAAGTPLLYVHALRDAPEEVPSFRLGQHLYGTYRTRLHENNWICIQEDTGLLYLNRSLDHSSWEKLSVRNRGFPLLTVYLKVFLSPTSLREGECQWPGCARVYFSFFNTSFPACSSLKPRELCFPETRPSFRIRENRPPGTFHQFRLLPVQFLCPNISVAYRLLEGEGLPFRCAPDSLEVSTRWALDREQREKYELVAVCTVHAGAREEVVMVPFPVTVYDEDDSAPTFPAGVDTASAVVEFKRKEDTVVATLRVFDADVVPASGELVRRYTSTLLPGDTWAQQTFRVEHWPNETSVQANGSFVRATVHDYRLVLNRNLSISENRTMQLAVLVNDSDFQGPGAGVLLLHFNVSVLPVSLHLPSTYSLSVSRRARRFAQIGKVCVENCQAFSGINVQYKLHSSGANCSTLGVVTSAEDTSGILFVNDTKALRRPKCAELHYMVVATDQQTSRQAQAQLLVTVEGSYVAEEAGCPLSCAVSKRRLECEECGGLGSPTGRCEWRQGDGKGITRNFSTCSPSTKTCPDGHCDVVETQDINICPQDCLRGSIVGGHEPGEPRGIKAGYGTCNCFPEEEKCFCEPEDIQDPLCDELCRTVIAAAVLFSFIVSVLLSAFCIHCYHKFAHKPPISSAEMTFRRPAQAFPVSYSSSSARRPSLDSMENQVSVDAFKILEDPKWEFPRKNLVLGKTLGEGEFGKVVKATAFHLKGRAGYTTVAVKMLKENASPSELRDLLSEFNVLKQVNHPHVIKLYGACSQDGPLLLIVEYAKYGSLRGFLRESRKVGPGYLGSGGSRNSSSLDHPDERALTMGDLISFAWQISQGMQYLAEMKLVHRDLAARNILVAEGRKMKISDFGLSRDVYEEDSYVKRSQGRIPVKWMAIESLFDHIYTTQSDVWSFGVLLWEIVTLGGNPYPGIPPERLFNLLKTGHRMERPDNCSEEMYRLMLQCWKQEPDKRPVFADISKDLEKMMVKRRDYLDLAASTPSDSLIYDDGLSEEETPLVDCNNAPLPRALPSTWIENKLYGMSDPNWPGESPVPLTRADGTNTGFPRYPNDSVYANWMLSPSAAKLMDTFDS
T27 sequence (Q9H3Y6 whole entry): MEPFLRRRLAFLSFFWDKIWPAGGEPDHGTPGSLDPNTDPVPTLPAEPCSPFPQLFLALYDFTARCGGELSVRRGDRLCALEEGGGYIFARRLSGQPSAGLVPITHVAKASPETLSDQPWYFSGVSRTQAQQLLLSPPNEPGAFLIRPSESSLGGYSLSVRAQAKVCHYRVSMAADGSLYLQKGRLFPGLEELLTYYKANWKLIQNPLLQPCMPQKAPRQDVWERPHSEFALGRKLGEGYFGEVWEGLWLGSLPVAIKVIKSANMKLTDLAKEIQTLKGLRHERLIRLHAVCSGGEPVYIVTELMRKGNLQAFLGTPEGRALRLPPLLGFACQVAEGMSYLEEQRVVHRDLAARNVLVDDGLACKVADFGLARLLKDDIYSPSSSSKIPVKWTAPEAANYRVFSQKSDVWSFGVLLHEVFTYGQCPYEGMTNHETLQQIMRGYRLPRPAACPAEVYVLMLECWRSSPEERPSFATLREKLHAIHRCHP
T37 sequence (Q9HBY8 whole entry): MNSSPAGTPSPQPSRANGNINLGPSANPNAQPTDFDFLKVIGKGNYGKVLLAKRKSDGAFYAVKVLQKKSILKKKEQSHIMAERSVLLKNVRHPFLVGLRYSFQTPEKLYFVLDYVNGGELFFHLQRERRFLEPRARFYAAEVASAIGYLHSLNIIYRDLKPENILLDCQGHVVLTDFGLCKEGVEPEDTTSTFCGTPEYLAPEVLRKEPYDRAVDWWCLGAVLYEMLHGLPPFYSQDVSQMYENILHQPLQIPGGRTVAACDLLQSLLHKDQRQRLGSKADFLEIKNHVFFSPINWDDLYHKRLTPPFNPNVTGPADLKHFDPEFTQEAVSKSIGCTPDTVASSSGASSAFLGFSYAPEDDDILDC
T14 sequence (P22455 22-802): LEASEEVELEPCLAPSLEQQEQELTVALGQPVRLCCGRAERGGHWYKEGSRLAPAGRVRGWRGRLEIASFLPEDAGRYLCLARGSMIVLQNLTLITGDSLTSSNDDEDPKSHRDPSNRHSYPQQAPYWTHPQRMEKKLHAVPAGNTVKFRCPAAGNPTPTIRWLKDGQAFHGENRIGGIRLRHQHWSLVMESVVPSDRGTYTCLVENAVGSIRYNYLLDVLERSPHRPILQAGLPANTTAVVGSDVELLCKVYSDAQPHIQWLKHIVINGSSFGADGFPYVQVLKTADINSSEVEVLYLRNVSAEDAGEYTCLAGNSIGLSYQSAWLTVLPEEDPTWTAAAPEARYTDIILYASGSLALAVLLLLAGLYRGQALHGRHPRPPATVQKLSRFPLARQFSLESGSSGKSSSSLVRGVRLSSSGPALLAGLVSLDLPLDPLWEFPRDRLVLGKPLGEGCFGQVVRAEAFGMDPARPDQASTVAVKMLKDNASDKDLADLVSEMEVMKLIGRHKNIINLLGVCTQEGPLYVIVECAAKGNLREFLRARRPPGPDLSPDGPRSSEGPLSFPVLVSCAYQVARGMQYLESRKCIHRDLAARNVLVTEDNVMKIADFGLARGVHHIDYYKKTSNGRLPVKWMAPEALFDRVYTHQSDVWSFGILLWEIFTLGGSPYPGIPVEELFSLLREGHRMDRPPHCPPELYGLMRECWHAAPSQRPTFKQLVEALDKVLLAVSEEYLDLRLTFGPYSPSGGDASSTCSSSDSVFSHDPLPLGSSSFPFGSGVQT
T7 sequence (P51957 whole entry): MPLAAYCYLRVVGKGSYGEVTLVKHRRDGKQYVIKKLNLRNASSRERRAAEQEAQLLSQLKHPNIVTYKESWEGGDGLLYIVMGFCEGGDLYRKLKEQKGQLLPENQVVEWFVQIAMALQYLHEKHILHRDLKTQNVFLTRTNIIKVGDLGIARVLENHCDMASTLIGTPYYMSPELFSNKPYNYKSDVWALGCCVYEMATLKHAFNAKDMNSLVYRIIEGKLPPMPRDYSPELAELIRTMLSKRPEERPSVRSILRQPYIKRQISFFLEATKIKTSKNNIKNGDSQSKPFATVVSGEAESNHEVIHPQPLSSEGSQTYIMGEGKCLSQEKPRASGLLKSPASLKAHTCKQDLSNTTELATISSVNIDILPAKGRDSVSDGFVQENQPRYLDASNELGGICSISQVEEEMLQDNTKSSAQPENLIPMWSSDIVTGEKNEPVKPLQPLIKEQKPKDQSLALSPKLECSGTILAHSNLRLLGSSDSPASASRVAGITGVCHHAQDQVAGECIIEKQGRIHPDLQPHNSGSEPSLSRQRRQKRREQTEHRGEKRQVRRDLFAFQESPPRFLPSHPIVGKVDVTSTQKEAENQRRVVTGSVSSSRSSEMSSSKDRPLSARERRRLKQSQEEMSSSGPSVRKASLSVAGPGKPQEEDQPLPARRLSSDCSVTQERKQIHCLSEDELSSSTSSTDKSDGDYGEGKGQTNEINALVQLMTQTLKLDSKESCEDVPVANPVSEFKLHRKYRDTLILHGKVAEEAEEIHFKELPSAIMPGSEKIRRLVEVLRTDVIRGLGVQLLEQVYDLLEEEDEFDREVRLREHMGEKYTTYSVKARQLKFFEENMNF
T11 sequence (P19525 whole entry): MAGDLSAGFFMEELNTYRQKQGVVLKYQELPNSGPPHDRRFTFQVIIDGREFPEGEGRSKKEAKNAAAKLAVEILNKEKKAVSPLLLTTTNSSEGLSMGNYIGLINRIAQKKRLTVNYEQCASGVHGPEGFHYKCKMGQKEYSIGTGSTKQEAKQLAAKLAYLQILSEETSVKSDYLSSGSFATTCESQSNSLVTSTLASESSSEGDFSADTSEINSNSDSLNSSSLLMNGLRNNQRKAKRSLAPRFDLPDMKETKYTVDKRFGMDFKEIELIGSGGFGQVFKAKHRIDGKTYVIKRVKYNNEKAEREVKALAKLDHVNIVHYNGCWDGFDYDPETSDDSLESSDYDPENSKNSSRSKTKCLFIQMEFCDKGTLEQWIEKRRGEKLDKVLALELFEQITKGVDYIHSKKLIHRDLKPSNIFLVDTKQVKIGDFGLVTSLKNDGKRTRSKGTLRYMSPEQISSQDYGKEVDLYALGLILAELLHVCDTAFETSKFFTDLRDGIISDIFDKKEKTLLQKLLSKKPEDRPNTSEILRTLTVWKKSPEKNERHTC
T32 sequence (P22455 22-802 V550E): as the sequence (P22455 22-802) above, with V529E counted along it

`C[C@@H]1CC[C@H]2C(C)(C)CCC[C@]2(C)c2c1oc1c(C=O)c(O)c(O)cc21` [LG-1, liphagal] showed an inhibition at 10 µM (EPHB3) of 1.7%, an inhibition at 10 µM (IKKβ) of 2.4% and an inhibition at 10 µM (MARK2) of 2.7%. For the same compound, the inhibition at 10 µM (FYN(isoform a)) was 0.5%, the inhibition at 10 µM (BRSK2) was 9.3% and the inhibition at 10 µM (NEK9) was 27.3%. For the same compound, the inhibition at 10 µM (NEK4) was 8.7%, the inhibition at 10 µM (MAPKAPK3) was 4.8% and the inhibition at 10 µM (PHKG2) was 1.5%. The inhibition at 10 µM (AMPKα1/β1/γ1) was 19.9%, the inhibition at 10 µM (PKR) was 13.8% and the inhibition at 10 µM (EEF2K) was 22.4%. The inhibition at 10 µM (WNK2) was 20.7%, the inhibition at 10 µM (FGFR4) was 7.5% and the inhibition at 10 µM (JNK2) was 10.7%. It also gave an inhibition at 10 µM (CaMK4) of 51.4%, an inhibition at 10 µM (PKCδ) of 1.6% and an inhibition at 10 µM (YES) of 0.7%. For the same compound, the inhibition at 10 µM (HPK4) was 18.2%, the inhibition at 10 µM (RSK4) was 7.4% and the inhibition at 10 µM (DYRK1A) was 10.5%. For the same compound, the inhibition at 10 µM (PAK4) was -24.7%, the inhibition at 10 µM (EGFR(T790M)) was -2% and the inhibition at 10 µM (PKACα) was 2.3%. For the same compound, the inhibition at 10 µM (RET(G691S)) was 14.8%, the IC50 (PIM2) was 5.31 µM and the IC50 (CDK7/CycHMAT1) was 1.27 µM. It also gave an inhibition at 10 µM (TSSK2) of 21%, an inhibition at 10 µM (SRM) of 19% and an inhibition at 10 µM (MNK2) of 5.9%. For the same compound, the inhibition at 10 µM (JNK1) was -10.8%, the inhibition at 10 µM (CaMK2α) was -0.5% and the inhibition at 10 µM (PKACβ) was 13.9%. For the same compound, the inhibition at 10 µM (FGFR4(V550E)) was 2.4%, the inhibition at 10 µM (AKT3) was 3.3% and the inhibition at 10 µM (BRK) was 52.5%. For the same compound, the inhibition at 10 µM (MRCKα) was 16%, the inhibition at 10 µM (FGFR3(K650M)) was -3.6% and the inhibition at 10 µM (SGK2) was 9.3%. The inhibition at 10 µM (KIT(V654A)) was 22.3%.

Source: patent publication US11691980B2, “Liphagal analog and multi-targeted kinase inhibitor containing liphagal or analog thereof” (TOHOKU UNIVERSITY, priority 2017, dated 2023)
